For the experiment, the target named is Cytochrome P450 3A4 (Homo sapiens, UniProt P08684).
Sequence of Cytochrome P450 3A4 (P08684 whole entry): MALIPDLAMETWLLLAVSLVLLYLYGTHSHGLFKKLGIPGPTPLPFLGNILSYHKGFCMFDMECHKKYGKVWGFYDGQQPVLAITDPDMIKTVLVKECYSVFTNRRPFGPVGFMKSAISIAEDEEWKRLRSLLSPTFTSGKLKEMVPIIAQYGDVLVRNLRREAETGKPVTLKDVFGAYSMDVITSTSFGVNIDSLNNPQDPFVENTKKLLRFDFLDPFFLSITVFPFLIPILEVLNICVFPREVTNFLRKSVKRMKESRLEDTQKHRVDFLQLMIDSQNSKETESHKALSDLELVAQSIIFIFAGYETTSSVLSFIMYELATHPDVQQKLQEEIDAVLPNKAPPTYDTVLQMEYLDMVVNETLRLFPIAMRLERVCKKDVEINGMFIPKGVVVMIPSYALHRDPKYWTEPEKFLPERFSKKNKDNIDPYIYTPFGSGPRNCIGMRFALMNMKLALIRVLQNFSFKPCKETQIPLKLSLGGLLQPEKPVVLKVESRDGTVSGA

`CC(C)(C(=O)c1cccnc1)c1cccnc1` [METYRAPONE] gave an IC50 of 4.93 µM. To `CCCC1COC(Cn2cncn2)(c2ccc(Cl)cc2Cl)O1` (stereo not drawn) [PROPICONAZOLE] belongs 1.04 µM; to `CC(C)(C)C(=O)C(Oc1ccc(Cl)cc1)n1cncn1` (stereo not drawn) [TRIADIMEFON], 9.29 µM.

These data come from ChEMBL document CHEMBL1152485, “Comparative chemometric modeling of cytochrome 3A4 inhibitory activity of structurally diverse compounds using stepwise MLR, FA-MLR, PLS, GFA, G/PLS and ANN techniques” (Eur J Med Chem, 2009).
